In patent US11192851B2, “Crystal of L-alanyl-L-glutamine and method for producing same” (KYOWA HAKKO BIO CO., LTD., priority 2016, dated 2021):
Residues, ends and D or L forms follow the SMILES beside them.

Assays:
Format in all cases: physicochemical
[1] = Angle of repose (Multi Tester MT-1001T); settings: crystal powder, sieve 1.18 mm, vibration width 0.7 to 0.8 mm
Protocol: The angle of repose refers to an angle formed by a generating line of a cone formed with a powder when the powder is allowed to gently fall onto the horizontal plane through a kind of funnel and a horizontal plane.
[Measurement Conditions for Angle of Repose]
Vibration width: 0.7 to 0.8 mm
The angle-of-repose table is rotated without being given vibration, angles are read at three sites, and an arithmetic mean value of the angles is determined to be the angle of repose.

[2] = Angle of rupture (Multi Tester MT-1001T); settings: crystal powder, after three impacts
From the text: The angle of rupture refers to an angle formed by a generating line of a cone, formed when a given impact is indirectly applied to a cone formed with a powder by allowing the powder to gently fall onto the horizontal plane through a kind of funnel, and a horizontal plane.
[Specific Example of Measurement Method for Angle of Rupture]
The operation is repeated for three times. Angles are read at three sites by a method similar to the measurement method for the angle of repose, and an arithmetic mean value of the angles is determined to be the angle of rupture.

[3] = Loose specific volume of crystals (50 mL measuring cylinder, two-stage funnel); settings: crystal powder
Protocol: The loose specific volume refers to a value obtained by dividing volume occupied by a powder by the mass of the powder when a container is filled with the powder and the mass of the powder is measured. A crystal with a low loose specific volume is excellent in filling properties, and easy to handle in various processing steps, and also its transportation cost is low. Therefore, the loose specific volume is preferably low. The loose specific volume can be measured by a method comprising: dropping crystals to a 50 mL glass measuring cylinder via a two-stage glass funnel to make the volume of the crystal to be about 45 mL, and measuring the weight of the crystals. A value obtained by dividing the measured volume of the crystal by the weight is determined to be the loose specific volume.

[4] = Dense specific volume of crystals (after tapping the cylinder 100 times); settings: crystal powder, after tapping 100 times
Protocol: The dense specific volume refers to a value obtained by dividing volume of a powder by the mass of the powder, when a container is filled with the powder and the mass of the powder is measured and then a given impact is applied to the container. The dense specific volume can be measured by a method comprising: dropping a crystal to a 50 mL glass measuring cylinder via a two-stage glass funnel to make the volume of the crystal to be about 45 mL; measuring the weight of the crystal; then tapping the measuring cylinder up and down for 100 times; and measuring the volume occupied by the crystal. A value obtained by dividing the measured volume of the crystal by the weight thereof is determined to be the dense specific volume.

[5] = Drying loss (water content of crystal by thermal analysis, TG/DTA); settings: water content in the crystals as loss on drying of the thermal analysis
Protocol: The crystal of L-alanyl-L-glutamine can be confirmed to be a crystal of nonhydrate when the water content, which is measured by using a thermal analysis according to a method described in the following measurement example, is generally 3.0 wt % or less, preferably 2.5 wt % or less, and more preferably 2.0 wt % or less.
[Measurement Example of Water Content of Crystal according to Thermal Analysis]
Used equipment: EXSTAR 6000 TG/DTA 6200 (manufactured by Seiko Instruments Inc.)
Measurement conditions: Temperature increases from 20° C. to 30° C. at 20° C./min→Hold for 15 minutes at 30° C.→Temperature increases from 30° C. to 250° C. at 5° C./min
Nitrogen flow rate: 300 mL/min
About the known crystal obtained by the method described in Japanese Patent No. 4931801 and the crystals of L-alanyl-L-glutamine nonhydrate of the present invention obtained in Examples 10 to 12, the results, which measured in terms of the loose specific volume, the dense specific volume, the angle of repose, the angle of rupture, and the water content in the crystals as loss on drying of the thermal analysis, are shown in Table 17.

Row | Compound | Angle of repose [1] | Angle of rupture [2] | Loose specific volume [3] | Dense specific volume [4] | Drying loss [5]
1 | CCO.C[C@H](N)C(=O)N[C@@H](CCC(N)=O)C(=O)O [Example 1, L-alanyl-L-glutamine n-ethanolate] (H-Ala-Gln-OH) | 39.7 ° | 34.6 ° | 2.55 mL/g | 2.08 mL/g | 
2 | CCO.C[C@H](N)C(=O)N[C@@H](CCC(N)=O)C(=O)O [Example 2 (95° C. vacuum drying), L-alanyl-L-glutamine n-ethanolate] (H-Ala-Gln-OH) | 41.2 ° | 35.0 ° | 2.47 mL/g | 1.88 mL/g | 
3 | CCO.C[C@H](N)C(=O)N[C@@H](CCC(N)=O)C(=O)O [Example 4 (25° C. vacuum drying), L-alanyl-L-glutamine n-ethanolate] (H-Ala-Gln-OH) | 39.4 ° | 35.1 ° | 3.23 mL/g | 2.32 mL/g | 
4 | CCO.C[C@H](N)C(=O)N[C@@H](CCC(N)=O)C(=O)O [Example 4 (95° C. vacuum drying), L-alanyl-L-glutamine n-ethanolate] (H-Ala-Gln-OH) | 42.5 ° | 38.6 ° | 3.61 mL/g | 2.21 mL/g | 
5 | C[C@H](N)C(=O)N[C@@H](CCC(N)=O)C(=O)O [Example 5, L-alanyl-L-glutamine nonhydrate] (H-Ala-Gln-OH) | 40.2 ° | 34.7 ° | 2.60 mL/g | 2.28 mL/g | 
6 | C[C@H](N)C(=O)N[C@@H](CCC(N)=O)C(=O)O.O.O [Example 7, L-alanyl-L-glutamine dihydrate] (H-Ala-Gln-OH) | 43.8 ° | 38.8 ° | 3.27 mL/g | 2.73 mL/g | 
7 | C[C@H](N)C(=O)N[C@@H](CCC(N)=O)C(=O)O [Example 10, L-alanyl-L-glutamine nonhydrate] (H-Ala-Gln-OH) | 46.4 ° | 39.5 ° | 3.69 mL/g | 2.59 mL/g | 1.9%
8 | C[C@H](N)C(=O)N[C@@H](CCC(N)=O)C(=O)O [Example 11, L-alanyl-L-glutamine nonhydrate] (H-Ala-Gln-OH) | 42.8 ° | 38.0 ° | 3.65 mL/g | 2.84 mL/g | 1.9%
9 | C[C@H](N)C(=O)N[C@@H](CCC(N)=O)C(=O)O [Example 12, L-alanyl-L-glutamine nonhydrate] (H-Ala-Gln-OH) | 44.7 ° | 41.4 ° | 3.07 mL/g | 2.37 mL/g | 0.3%
10 | C[C@H](N)C(=O)N[C@@H](CCC(N)=O)C(=O)O [Patent No. 4931801 (nonhydrate), L-alanyl-L-glutamine nonhydrate, reference compound] (H-Ala-Gln-OH) | 50.9 ° | 46.0 ° | 5.27 mL/g | 2.66 mL/g | 0.2%
